From patent US20210147802A1, “METHODS OF GENERATING ENUCLEATED ERYTHROID CELLS USING TAURINE OR HYPOTAURINE” (Rubius Therapeutics, Inc., priority 2019, published 2021)

Legend:
[1] = test system: erythroid progenitor cells; assay: Total cell density over time in cultures of erythroid progenitor cells (FIG. 1); type: cell-based; settings: culture medium including the substance during maturation; compared to methods without it
[2] = test system: erythroid progenitor cells; assay: Enucleated erythroid cell density over time in cultures of erythroid progenitor cells (FIG. 2); type: cell-based; settings: culture medium including the substance during maturation; compared to methods without it
[3] = test system: erythroid cells generated from human CD34+ hematopoietic stem cells; assay: Three-stage erythroid culture; maturation-phase (third) medium supplemented; FACS-based cell counting
Method: The effect of hypotaurine alone or in combination with myo-inositol on erythroid progenitor cell cultures was examined. Human CD34^+ hematopoietic stem cells (HSCs) were cultured in a three-stage process to generate enucleated erythroid cells. In the first stage, the CD34^+ HSCs were expanded in a T-flask in a first culture medium containing IMDM supplemented recombinant human insulin, recombinant human transferrin, recombinant human SCF, recombinant IL-3, recombinant Flt-3 ligand, and recombinant human IL-3. Subsequently, cells were transduced with a lentiviral vector encoding phenylalanine ammonia lyase. After transduction, cells were cultured in a 50 L bioreactor culture vessel containing a second culture medium containing IMDM, supplemented with recombinant human erythropoietin, recombinant human SCF, recombinant human IL3, recombinant human insulin, dexamethasone, and recombinant human transferrin. For the third stage of the process (maturation phase), an aliquot of cells was seeded into 24 well plate containing a third culture medium containing IMDM supplemented with recombinant human EPO, recombinant human SCF, recombinant human insulin, recombinant transferrin, human AB serum, and human plasma.
[…] Of note, the first, second and third culture media included a basal media (i.e., IMDM) including 0.0072 g/L of myo-inositol. Periodic sampling and cell counting was performed during the third stage using a fluorescence-activated cell sorting-based cell counter.

[4] = third culture media supplemented with taurine, compared to control culture conditions (data not shown)

Structure (SMILES) | cell proliferation [1] | number of enucleated erythroid cells [2] | rate of enucleation [2] | total cell density of erythroid cells ([3]; 1.0 g/L hypotaurine in third culture medium, 24 well plate, compared to control culture conditions (FIG. 1)) | enucleated erythroid cell density ([3]; 1.0 g/L hypotaurine in third culture medium, 24 well plate, compared to control culture conditions (FIG. 2)) | enucleated erythroid cell density [3, 4] | total cell density of erythroid cells [3, 4]
NCCS(=O)O [hypotaurine] | increased | increased | increased | significantly increase | significantly increase |  | 
NCCS(=O)(=O)O [taurine] | increased | increased | increased |  |  | significant increase | significant increase
